Reference: PubChem BioAssay AID330 (DTP/NCI, 2004)
Where “and” joins values, the source holds several entries; their conditions need not be identical. Equal entries are not always repeated. Toxic doses and inconclusive results are not listed. Rule for the calls: active = survival T/C of 150% or more; inactive = T/C below 125% in these data. Peptide text beside a SMILES is read from it. * marks the point of attachment. Cbz = O=C(OCc1ccccc1)*; OBn = c1ccc(CO*)cc1

System: P388 leukemia ip, CD2F1 mice, survival T/C
Experiment: NCI In Vivo Anticancer Drug Screen. Data for tumor model P388 Leukemia (intraperitoneal) in CD2F1 (CDF1) mice
Conditions: endpoint: median survival time, higher = longer survival
In short: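 Mice carrying the transplanted tumor received test compound or vehicle. Survival was recorded in each group, and the value is the treated-group measurement divided by that of the vehicle-treated control group.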

[1] = dose: 25.0 mg/kg/injection, schedule: Q01DX009 (ip), vehicle: saline
[2] = dose: 60.0 mg/kg/injection, schedule: Q01DX005 (ip), vehicle: saline with Tween-80
[3] = dose: 120.0 mg/kg/injection, schedule: Q01DX005 (ip), vehicle: saline with Tween-80
[4] = dose: 240.0 mg/kg/injection, schedule: Q01DX005 (ip), vehicle: saline with Tween-80
[5] = dose: 50.0 mg/kg/injection, schedule: Q01DX005 (ip), vehicle: Klucel (hydroxypropylcellulose) (HPC)
[6] = dose: 100.0 mg/kg/injection, schedule: Q01DX005 (ip), vehicle: Klucel (hydroxypropylcellulose) (HPC)
[7] = dose: 200.0 mg/kg/injection, schedule: Q01DX005 (ip), vehicle: Klucel (hydroxypropylcellulose) (HPC)
[8] = dose: 50.0 mg/kg/injection, schedule: Q01DX009 (ip), vehicle: Klucel (hydroxypropylcellulose) (HPC)
[9] = dose: 100.0 mg/kg/injection, schedule: Q01DX009 (ip), vehicle: Klucel (hydroxypropylcellulose) (HPC)
[10] = dose: 200.0 mg/kg/injection, schedule: Q01DX009 (ip), vehicle: Klucel (hydroxypropylcellulose) (HPC)

Measured: T/C

CCOC(=O)C1=C(C#N)C2(CCC(OCc3ccccc3)CC2)C(=O)O1 (stereo not given)
inactive: dose: 25.0 mg/kg/injection, schedule: Q01DX009 (ip), vehicle: saline with Tween-80 90 % of control | [1] 104 % of control | dose: 50.0 mg/kg/injection, schedule: Q01DX009 (ip), vehicle: saline with Tween-80 92 % of control | dose: 50.0 mg/kg/injection, schedule: Q01DX009 (ip), vehicle: saline 104 % of control and 106 % of control and 100 % of control | dose: 100.0 mg/kg/injection, schedule: Q01DX009 (ip), vehicle: saline with Tween-80 119 % of control | dose: 100.0 mg/kg/injection, schedule: Q01DX009 (ip), vehicle: saline 108 % of control and 116 % of control and 102 % of control | dose: 200.0 mg/kg/injection, schedule: Q01DX009 (ip), vehicle: saline with Tween-80 123 % of control | dose: 200.0 mg/kg/injection, schedule: Q01DX009 (ip), vehicle: saline 119 % of control and 100 % of control

COc1ccc(C2COc3cc(O)c(O)cc3C2)cc1OC (stereo not given)
inactive: [2] 101 % of control | [3] 97 % of control | [4] 101 % of control

Nc1cc2nc3ccccc3oc-2cc1=O
inactive: [5] 105 % of control | [6] 101 % of control | [7] 97 % of control

CC1=C(C2CO2)C(=O)c2ccccc2C1=O (stereo not given)
inactive: dose: 1.56 mg/kg/injection, schedule: Q01DX005 (ip), vehicle: Klucel (hydroxypropylcellulose) (HPC) 104 % of control and 107 % of control | dose: 3.12 mg/kg/injection, schedule: Q01DX005 (ip), vehicle: Klucel (hydroxypropylcellulose) (HPC) 103 % of control and 104 % of control | dose: 6.25 mg/kg/injection, schedule: Q01DX005 (ip), vehicle: Klucel (hydroxypropylcellulose) (HPC) 99 % of control and 100 % of control and 94 % of control

c1ccc2c(c1)-c1nc-2nc2[nH]c(nc3nc(nc4[nH]c(n1)c1ccccc41)-c1ccccc1-3)c1cc3c4nc5nc(nc6[nH]c(nc7nc(nc([nH]4)c3cc21)-c1ccccc1-7)c1ccccc61)-c1ccccc1-5
inactive: dose: 60.0 mg/kg/injection, schedule: Q01DX005 (ip), vehicle: Klucel (hydroxypropylcellulose) (HPC) 106 % of control | dose: 120.0 mg/kg/injection, schedule: Q01DX005 (ip), vehicle: Klucel (hydroxypropylcellulose) (HPC) 100 % of control | dose: 240.0 mg/kg/injection, schedule: Q01DX005 (ip), vehicle: Klucel (hydroxypropylcellulose) (HPC) 97 % of control

Clc1ccc(CN2Cc3ccc4cccnc4c3OC2c2ccccn2)cc1Cl (stereo not given)
inactive: [8] 100 % of control | [9] 101 % of control | [10] 101 % of control

[I][Hg][CH2]C1OCCOC1[CH2][Hg][I] (stereo not given)
inactive: dose: 100.0 mg/kg/injection, schedule: Q04DX003 (ip), vehicle: saline with Tween-80 118 % of control | dose: 200.0 mg/kg/injection, schedule: Q04DX003 (ip), vehicle: saline with Tween-80 118 % of control | dose: 400.0 mg/kg/injection, schedule: Q04DX003 (ip), vehicle: saline with Tween-80 90 % of control

O=C(NC(CO)C(=O)N1CCCC1C(=O)OCc1ccccc1)OCc1ccccc1 (stereo not drawn) (Cbz-Ser-Pro-OBn; configuration not given here)
inactive: [5] 96 % of control | [6] 93 % of control | [7] 92 % of control

O=C(OCc1ccccc1)ON1C(=O)C2C3C=CC(C3)C2C1=O (stereo not given)
inactive: [5] 115 % of control | [6] 110 % of control

Cc1ccc(C2=C/C(=C/c3ccc(N(CCC#N)CCC#N)cc3)C(=O)O2)c(C)c1
inactive: dose: 100.0 mg/kg/injection, schedule: Q01DX001 (ip), vehicle: saline with Tween-80 95 % of control | dose: 200.0 mg/kg/injection, schedule: Q01DX001 (ip), vehicle: saline with Tween-80 95 % of control | dose: 400.0 mg/kg/injection, schedule: Q01DX001 (ip), vehicle: saline with Tween-80 87 % of control

CC(O)CN(CCN(CC(C)O)CC(C)O)CC(C)O.[Cl-].[Zn+2] (stereo not given)
inactive: dose: 12.5 mg/kg/injection, schedule: Q01DX009 (ip), vehicle: saline 117 % of control | [1] 122 % of control

Nc1ccc(S(=O)(=O)n2c(=O)oc3cc(Br)ccc32)cc1
inactive: dose: 25.0 mg/kg/injection, schedule: Q04DX002 (ip), vehicle: Klucel (hydroxypropylcellulose) (HPC) 99 % of control | dose: 50.0 mg/kg/injection, schedule: Q04DX002 (ip), vehicle: Klucel (hydroxypropylcellulose) (HPC) 99 % of control | dose: 100.0 mg/kg/injection, schedule: Q04DX002 (ip), vehicle: Klucel (hydroxypropylcellulose) (HPC) 100 % of control and 93 % of control

N#Cc1nc(CC(=O)c2ccccc2Cl)c(CC(=O)c2ccccc2Cl)nc1C#N
inactive: [2] 100 % of control | [3] 94 % of control | [4] 114 % of control

CCOC(=O)Cc1ccc(-c2csc(Nc3ccccc3)n2)cc1
inactive: [8] 106 % of control | [9] 98 % of control | [10] 98 % of control
